Key:
[1] = test system: CT26 syngeneic mouse colon fibroblast carcinoma-derived subcutaneous tumor; test: CT26 Study 1: mouse CT26 syngeneic tumor model, individual tumor volume; assay type: in vivo; details: Compound I-263a 7.5 mg/kg IV Day 1, 4; anti-mPD-1 10 mg/kg IP Day 1, 4, 8, 11; 8 mice/group
Method: CT26 Study 1: CT26 is a mouse colon fibroblast carcinoma cell line. CT26 mouse syngeneic tumor model was generated by subcutaneous inoculation with 0.2×10^6 CT-26 cells (cell suspension) in 12 weeks old female BALB/c mice (Jackson Laboratory, 600 Main St, Bar Harbor, ME) in the flank. When the mean tumor volume reached approximately 60 mm^3, the animals were randomized into one vehicle control and three treatment groups (n=8/group). Mice were then dosed with 20% HPbCD or Compound I-263a or anti-mouse PD-1 antibody over a 14-day period. Tumor growth and body weight were measured twice per week during the treatment and post-treatment periods, and mice were humanely euthanized once they had reached their humane endpoint.
Study 1: A 0.825 mg/mL stock solution of Compound I-263a was formulated weekly in 20% HPβCD and administered intravenously (IV) based on exact animal body weight on each day of treatment, using a dosing volume of 10 mL/kg body weight. Final doses received were 7.5 mg/kg. Dosing volume for Compound I-263a was 0.2 mL. […]
(§1) Tumors were measured twice weekly using vernier calipers. Tumor volumes were calculated using standard equation: V=W^2×L/2, where V=volume, W=width, and L=length for the tumor. […] Tumor size and body weight were measured twice a week for the duration of the study. […]

[2] = test system: WEHI-3 syngeneic mouse myelomonocytic leukemia-derived subcutaneous tumor; test: WEHI-3 Study 5: mouse WEHI-3 syngeneic tumor model, individual tumor volume; assay type: in vivo; details: Compound I-263a 7.5 mg/kg IV BIW till Day 14
Method: WEHI-3 Study 5: WEHI-3 is a mouse myelomonocytic leukemia cell line. WEHI-3 mouse syngeneic tumor model was generated by subcutaneous inoculation with 0.1×10^6 WEHI-3 cells (cell suspension) in 9 weeks old female BALB/c mice (SINO-British SIPPR/BK Lab Animal Ltd. Shanghai, China) in the flank. When the mean tumor volume reached approximately 30 mm^3, the animals were randomized into one vehicle control and five treatment groups (n=8/group). Mice were then dosed with 20% HPbCD or Compound I-263a or anti-mouse PD-1 antibody or anti-mouse CTLA-4 antibody over a 21-day period. Tumor growth and body weight were measured twice per week during the treatment and post-treatment periods, and mice were humanely euthanized once they had reached their humane endpoint.
Study 5: A 0.75 mg/mL stock solution of Compound I-263a was formulated weekly in 20% HPβCD and administered intravenously (IV) based on exact animal body weight on each day of treatment, using a dosing volume of 10 mL/kg body weight. Final doses received were 7.5 mg/kg. Dosing volume for Compound I-263a was 0.2 mL. Anti-mouse PD1 antibody (anti-mPD-1) (Bio X Cell, 10 Technology Drive, Suite 2B, West Lebanon, NH 03784) was formulated prior to each injection at 2.0 mg/mL in Phosphate-buffered saline (PBS) and administered intraperitoneally (IP) based on exact body weight on each day of treatment, using a dosing volume of 5 mL/kg resulting in a 10 mg/kg dose. Dosing volume for anti-mPD-1 was 0.1 mL. Anti-mouse CTLA-4 antibody (anti-mCTLA-4) (Bio X Cell, 10 Technology Drive, Suite 2B, West Lebanon, NH 03784) was formulated prior to each injection at 2.0 mg/mL in Phosphate-buffered saline (PBS) and administered intraperitoneally (IP) based on exact body weight on each day of treatment, using a dosing volume of 5 mL/kg resulting in a 10 mg/kg dose. […]
as §1

SMILES: Cc1sc(C(=O)c2cncnc2N[C@@H]2C[C@H](COS(N)(=O)=O)[C@@H](O)C2)cc1[C@@H]1NCCc2ccc(Cl)cc21 [Compound I-263a, [(1R,2S,4R)-4-{[5-({4-[(1R)-7-chloro-1,2,3,4-tetrahydroisoquinolin-1-yl]-5-methyl-2-thienyl}carbonyl)pyrimidin-4-yl]amino}-2-hydroxycyclopentyl]methyl sulfamate]
- tumor growth inhibition relative to vehicle-treated tumors [1]: did not show any tumor growth inhibition
- tumor growth inhibition / antitumor activity relative to vehicle ([2]; anti-mPD-1 10 mg/kg IP BIW till Day 10, anti-mCTLA-4 10 mg/kg IP Q4D till Day 8, 8 tumors/group): modest inhibition
- tumor growth delays ([2]; delay to 11-14 days): one
- tumors with slight tumor growth delay ([2]; delays to 7-11 days, of the 8 implanted tumors): 6

— patent publication US12419890B2, “Administration of sumo-activating enzyme inhibitor and checkpoint inhibitors” (Takeda Pharmaceutical Company Limited, priority 2019, dated 2025)
